Measurements from US9469650B2, “Melampomagnolide B derivatives” (BOARD OF TRUSTEES OF THE UNIVERSITY OF ARKANSAS, priority 2013, dated 2016).

Assays:
CCRF-CEM = test: panel of 60 human tumor cell lines, growth inhibition (Leukemia); details: Homo sapiens; for GI50: NCI five dose; for CC50: read-out: LC50; for IC (TGI): read-out: TGI
SR = test: as above; details: Homo sapiens; for CC50: read-out: LC50; for IC (TGI): read-out: TGI
LOX IMVI = test: panel of 60 human tumor cell lines, growth inhibition (Melanoma); details: Homo sapiens; for GI50: NCI five dose; for CC50: read-out: LC50; for IC (TGI): read-out: TGI
M14 = test: as above; details: Homo sapiens; for GI50: M14; for CC50: M14, read-out: LC50; for IC (TGI): M14, read-out: TGI
MDA-MB-435 = test: as above; details: Homo sapiens; for GI50: MDA-MB-435; for CC50: MDA-MB-435, read-out: LC50; for IC (TGI): MDA-MB-435, read-out: TGI
SK-MEL-5 = test: as above; details: Homo sapiens; for GI50: SK-MEL-5; for CC50: SK-MEL-5, read-out: LC50; for IC (TGI): SK-MEL-5, read-out: TGI
U251 = test: panel of 60 human tumor cell lines, growth inhibition (CNS Cancer); details: Homo sapiens; for GI50: U-251; for CC50: U-251, read-out: LC50; for IC (TGI): U-251, read-out: TGI
HCC-2998 = test: panel of 60 human tumor cell lines, growth inhibition (Colon Cancer); details: Homo sapiens; for GI50: HCC 2998; for CC50: HCC 2998, read-out: LC50; for IC (TGI): HCC 2998, read-out: TGI
786-0 = test: panel of 60 human tumor cell lines, growth inhibition (Renal Cancer); details: Homo sapiens; for GI50: 786-0; for CC50: 786-0, read-out: LC50; for IC (TGI): 786-0, read-out: TGI
ACHN = test: as above; details: Homo sapiens; for CC50: read-out: LC50; for IC (TGI): read-out: TGI
SN12C = test: as above; details: Homo sapiens; for CC50: read-out: LC50; for IC (TGI): read-out: TGI
UO-31 = test: as above; details: Homo sapiens; for GI50: UO-31; for CC50: UO-31, read-out: LC50; for IC (TGI): UO-31, read-out: TGI
MCF7 = test: panel of 60 human tumor cell lines, growth inhibition (Breast Cancer); details: Homo sapiens; for GI50: MCF7, MCF7, NCI five dose; for CC50: MCF7, read-out: LC50; for IC (TGI): MCF7, read-out: TGI
MDA-MB-231/ATCC = test: as above; details: Homo sapiens; for GI50: MDA-MB-231; for CC50: MDA-MB-231, read-out: LC50; for IC (TGI): MDA-MB-231, read-out: TGI
OVCAR-8 = test: panel of 60 human tumor cell lines, growth inhibition (Ovarian Cancer); details: Homo sapiens; for GI50: OVCAR-8; for CC50: OVCAR-8, read-out: LC50; for IC (TGI): OVCAR-8, read-out: TGI
SK-OV-3 = test: as above; details: Homo sapiens; for GI50: SK-OV-3; for CC50: SK-OV-3, read-out: LC50; for IC (TGI): SK-OV-3, read-out: TGI
HOP-62 = test: panel of 60 human tumor cell lines, growth inhibition (Non-Small Cell Lung Cancer); details: Homo sapiens; for GI50: HOP-62; for CC50: HOP-62, read-out: LC50; for IC (TGI): HOP-62, read-out: TGI
NCI-H226 = test: as above; details: Homo sapiens; for GI50: NCI-H226; for CC50: NCI-H226, read-out: LC50; for IC (TGI): NCI-H226, read-out: TGI
NCI-H460 = test: as above; details: Homo sapiens; for GI50: NCI-H460; for CC50: NCI-H460, read-out: LC50

## C=C1C(=O)O[C@H]2[C@H]1CC/C(COC(=O)OC)=C\CC[C@@]1(C)O[C@@H]21 [JVM 2-40]
CCRF-CEM
  GI50: 1.49 µM
  CC50: 98 µM
  IC (TGI): 6.04 µM
SR
  GI50: 2.24 µM
  CC50: > 100 µM
  IC (TGI): 12.5 µM
LOX IMVI
  GI50: 3.4 µM
  CC50: 43.3 µM
  IC (TGI): 13.1 µM
M14
  GI50: 2.91 µM
  CC50: 42.2 µM
  IC (TGI): 14.1 µM
MDA-MB-435
  GI50: 3.63 µM
  CC50: 55.4 µM
  IC (TGI): 16.8 µM
SK-MEL-5
  GI50: 7.58 µM
  CC50: 50.6 µM
  IC (TGI): 21.5 µM
U251
  GI50: 16.4 µM
  CC50: 55.5 µM
  IC (TGI): 30.2 µM
HCC-2998
  GI50: 13.8 µM
  CC50: 56.8 µM
  IC (TGI): 28 µM
786-0
  GI50: 3.29 µM
  CC50: 48.5 µM
  IC (TGI): 14.4 µM
ACHN
  GI50: 2.4 µM
  CC50: 32.2 µM
  IC (TGI): 8.17 µM
SN12C
  GI50: 6.31 µM
  CC50: 64.4 µM
  IC (TGI): 22.6 µM
UO-31
  GI50: 3.21 µM
  CC50: 42.1 µM
  IC (TGI): 14.2 µM
MCF7
  GI50: 2.28 µM
  CC50: 49.8 µM
  IC (TGI): 12.2 µM
MDA-MB-231/ATCC
  GI50: 3.54 µM
  CC50: 46.7 µM
  IC (TGI): 16.6 µM
OVCAR-8
  GI50: 8.95 µM
  CC50: 65.6 µM
  IC (TGI): 24.7 µM
SK-OV-3
  GI50: 22.7 µM
  CC50: > 100 µM
  IC (TGI): 59.7 µM
HOP-62
  GI50: 14.9 µM
  CC50: 62.2 µM
  IC (TGI): 30.4 µM
NCI-H226
  GI50: 7.07 µM
  CC50: 87.7 µM
  IC (TGI): 27.4 µM
NCI-H460
  GI50: 16.7 µM
  CC50: 89.7 µM

## C=C1C(=O)O[C@H]2[C@H]1CC/C(COC(=O)NCCCCCCO)=C\CC[C@@]1(C)O[C@@H]21 [JVM 2-31]
CCRF-CEM
  GI50: 2.78 µM
  CC50: > 100 µM
  IC (TGI): 10.7 µM
SR
  GI50: 2.35 µM
  CC50: > 100 µM
  IC (TGI): 13.3 µM
LOX IMVI
  GI50: 3.45 µM
  CC50: 42.1 µM
  IC (TGI): 13.1 µM
M14
  GI50: 4.5 µM
  CC50: 46.7 µM
  IC (TGI): 17.4 µM
MDA-MB-435
  GI50: 4.45 µM
  CC50: 70.9 µM
  IC (TGI): 20.2 µM
SK-MEL-5
  GI50: 6.8 µM
  CC50: 54.5 µM
  IC (TGI): 21.7 µM
U251
  GI50: 17.4 µM
  CC50: 63.7 µM
  IC (TGI): 33.3 µM
HCC-2998
  GI50: 15.6 µM
  CC50: 61.9 µM
  IC (TGI): 31.1 µM
786-0
  GI50: 2.99 µM
  CC50: 43.7 µM
  IC (TGI): 13.1 µM
ACHN
  GI50: 3.21 µM
  CC50: 49.6 µM
  IC (TGI): 13.6 µM
SN12C
  GI50: 10.4 µM
  CC50: 69.7 µM
  IC (TGI): 27 µM
UO-31
  GI50: 5.91 µM
  CC50: 62.6 µM
  IC (TGI): 21.2 µM
MCF7
  GI50: 4.92 µM
  CC50: 76.3 µM
  IC (TGI): 12 µM
MDA-MB-231/ATCC
  GI50: 8.01 µM
  CC50: 57.9 µM
  IC (TGI): 20.3 µM
OVCAR-8
  GI50: 10.2 µM
  CC50: 76 µM
  IC (TGI): 27.9 µM
SK-OV-3
  GI50: 28.6 µM
  CC50: > 100 µM
  IC (TGI): 69.9 µM
HOP-62
  GI50: 19.6 µM
  CC50: 86.7 µM
  IC (TGI): 41.2 µM
NCI-H226
  GI50: 4.92 µM
  CC50: 87.2 µM
  IC (TGI): 23.9 µM
NCI-H460
  GI50: 20.3 µM
  CC50: > 100 µM
NCI-H460; NCI-H460, read-out: TGI
  IC (TGI): 51.2 µM
